Data reported in US5885995A, “Inhibitors of farnesyl-protein transferase” (Merck & Co., Inc., priority 1997, dated 1999).
Where a name gives a salt, the structure may show the parent alone.

Target: T1, human FPTase (Homo sapiens, UniProt P49354+P49356)
T1 construct: made in house
Assay: In vitro inhibition of human farnesyl-protein transferase (FPTase)
Format: biochemical
Details: [3H]-FPP, 100 nM Ras-CVIM, 30 min, read-out: IC50 (inhibitory activity against human FPTase)

IC50: ≤ 10 µM
Structure (SMILES): N#Cc1ccc(Cn2cncc2CN2CCN(c3cccc(Cl)c3)CC2=O)cc1 [Example 1, 4-(3-Chlorophenyl)-1-[1-(4-cyanobenzyl)-5-imidazolylmethyl]-2-piperazinone hydrochloride]
